We go through 17 substances from patent US11214803B2, “Modulators of YAP1 expression” (Ionis Pharmaceuticals, Inc., priority 2019, dated 2022).

Strand notation (5' to 3'): a small letter for the sugar, then the base; units joined by * are phosphorothioate-linked, units joined directly phosphodiester-linked; [ ] holds rarer units or linkages, { } end groups; capitals alone tell only the bases. k = constrained ethyl (cEt); [5mC] = 5-methylcytosine; d = 2'-deoxy (DNA)

Broadly, the IC50 is the concentration needed to halve the response being measured.

The test system of data set [1] is Yap1 mRNA. Nature of the data set: Dose-dependent inhibition of human Yap1 in A-431 cells (Example 7, 10,000 cells per well, RTS36584). The class given is cell-based. Particulars: free uptake; for Yap1 mRNA, % UTC: A-431 cells 10,000 cells per well, 48 hours. The method, boiled down:
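Yap1 mRNA was expressed as percent of untreated control after normalization to total RNA (RIBOGREEN), and IC50 was derived by log/linear linear regression. The read-out used primer-probe set RTS36584 roughly 48 hours after free-uptake dosing of oligonucleotides into A-431 cells (10,000 cells/well).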

Data set [2] in a line: Tolerability in Balb/c mice, plasma chemistry markers (Example 12). Particulars: 50 mg/kg subcutaneously twice a week for four weeks. The class given is in vivo. The protocol:
Balb/c mice were treated with modified oligonucleotides selected from studies described above and evaluated for changes in the levels of various plasma chemistry markers.
(§1) Groups of male Balb/c mice at 6-7 weeks of age (obtained from Taconic) were injected subcutaneously twice a week for four weeks (for a total of 8 treatments) with 50 mg/kg of modified oligonucleotides. One group of male Balb/c mice was injected with PBS. Mice were euthanized on day 26 post start of treatment (24 hours following the final administration).

The nature of data set [3]: Tolerability in Balb/c mice, body and organ weights (Example 12). The class given is in vivo. The note with it: male Balb/c mice, 50 mg/kg s.c. twice a week for four weeks (8 treatments), end of study (day 26). The protocol: as §1
Body weights of Balb/c mice were measured at the end of the study, and the average body weight for each group is presented in the table below. Modified oligonucleotides that caused any changes in organ weights outside the expected range for modified oligonucleotides were excluded from further studies.

For data set [4], the system named is Yap1 mRNA. Nature of the data set: Antisense inhibition of human Yap1 in A-431 cells by cEt gapmers, single dose (Example 1, RTS4814). The class given is cell-based. The method, boiled down: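 Free uptake of 2,000 nM 3-10-3 cEt gapmer (16-mer, full phosphorothioate, 5-methylcytosines) in A-431 cells for ~48 h. Yap1 mRNA quantified by qRT-PCR with set RTS4814, normalized to total RNA (RiboGreen), and expressed as % of untreated control; asterisked values target the amplicon region.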

Data set [5] deals with Yap1 mRNA. The data set can be described thus: Antisense inhibition of human Yap1 in A-431 cells by cEt gapmers, single dose (Example 3, RTS36584). Particulars: A-431 cells, 5,000 cells per well. In kind it is cell-based. In short, it runs like this: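 Single-dose free-uptake screen of 3-10-3 cEt gapmers in A-431 cells at 2,000 nM over about 48 h. Values are % untreated control Yap1 mRNA.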

For data set [6], the system named is Yap1 mRNA. Nature of the data set: Antisense inhibition of human Yap1 in SNU-449 cells by modified oligonucleotides, single dose (Example 5, RTS36584). In kind it is cell-based. In short, it runs like this: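 Plate SNU-449 cells at 10,000 per well; add 2,000 nM modified oligonucleotide without transfection reagent; after ~48 h isolate RNA, run qRT-PCR with RTS36584, normalise to RIBOGREEN and report % UTC.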

Where [7] appears, read: Table 2, A-431 cells, free uptake, 2,000 nM, approximately 48 hours, RTS4814, Yap1 mRNA relative to untreated control cells.
Setting [8] is: Table 8, free uptake, 2,000 nM, approximately 48 hours, RTS36584, normalized to RIBOGREEN, Yap1 mRNA relative to untreated control cells.
[9] abbreviates: Table 1, A-431 cells, free uptake, 2,000 nM, approximately 48 hours, RTS4814, Yap1 mRNA relative to untreated control cells.
The mark [10] stands for this setting: A-431 cells, 5,000 cells per well, free uptake, 2,000 nM modified oligonucleotide, approx. 48 hours, RTS4814, normalized to RIBOGREEN, Table 3.

Turning to “958603 (kT*kG*kG*dT*dA*dT*dG*dA*dA*dT*dT*d[5mC]*dT*kG*kA*kA; antisense) [compound 958603]”, the “Yap1 mRNA, % UTC” value with Yap1 mRNA [1] (Table 59, 15.6 nM) came out at 70 % UTC. The “Yap1 mRNA, % UTC” value in the data set with Yap1 mRNA [1] (Table 59, 62.5 nM) worked out at 27 % UTC. For the same substance, the “Yap1 mRNA, % UTC” value in the data set on Yap1 mRNA [1] (Table 59, 4000.00 nM) is listed as 4 % UTC. Besides, in the data set on Yap1 mRNA [1] (Table 59, A-431 cells 10,000 cells per well), the half-inhibitory concentration (IC50) was found to be 30 nM. Moreover, in data set [2], the ALT is given as 1103 U/L, the AST came out at 927 U/L, the BUN turned out to be 27 mg/dL and the TBIL stood at 0.35 mg/dL. In data set [3], this substance yielded a Kidney weight of 0.36 g, a Liver weight of 1.80 g, a Spleen weight of 0.20 g and a body weight of 21 g.
As for “715491 (antisense kA*kA*k[5mC]*d[5mC]*dA*dA*d[5mC]*dT*dA*dT*dT*dA*d[5mC]*kT*kT*k[5mC]) [Compound 715491]”, the entries for the “YAP1 (% UTC)” value in the data set with Yap1 mRNA [4] (setting [7]) and in the data set on Yap1 mRNA [5] (setting [8]) were 71 % UTC and 8 % UTC, respectively.
“715487 (antisense kA*kT*kT*dA*d[5mC]*dT*dT*d[5mC]*dA*dT*dA*dG*d[5mC]*kT*kT*kA) [Compound 715487]”: the “YAP1 (% UTC)” value in the data set with Yap1 mRNA [4] (setting [9]) was determined as 22 % UTC; in the data set on Yap1 mRNA [6] (Table 39, SNU-449 cells, 10,000 cells per well, free uptake, 2,000 nM oligonucleotide, approx. 48 hours, RTS36584, normalized to RIBOGREEN, Yap1 mRNA relative to untreated control), 12 % UTC; in the data set on Yap1 mRNA [6] (Table 40 (separate experiment), SNU-449 cells, 10,000 cells per well, free uptake, 2,000 nM oligonucleotide, approx. 48 hours, RTS36584, normalized to RIBOGREEN, Yap1 mRNA relative to untreated control) it was 28 % UTC; in the data set with Yap1 mRNA [6] (Table 41, SNU-449 cells, 10,000 cells per well, free uptake, 2,000 nM modified oligonucleotide, approximately 48 hours, RTS36584, normalized to RIBOGREEN, Yap1 mRNA relative to untreated control cells) it was 28 % UTC; in the data set with Yap1 mRNA [6] (Table 42 (separate experiment), SNU-449 cells, 10,000 cells per well, free uptake, 2,000 nM modified oligonucleotide, approximately 48 hours, RTS36584, normalized to RIBOGREEN, Yap1 mRNA relative to untreated control cells) it was 29 % UTC; with Yap1 mRNA [6] (Table 43 experiment, SNU-449 cells, 10,000 cells per well, free uptake, 2,000 nM, approximately 48 hours, RTS36584, Yap1 mRNA normalized to RIBOGREEN, relative to untreated control cells), 25 % UTC. For the same substance, the “YAP1 (% UTC)” value in the data set with Yap1 mRNA [6] (Table 44 experiment, SNU-449 cells, 10,000 cells per well, free uptake, 2,000 nM, approximately 48 hours, RTS36584, Yap1 mRNA normalized to RIBOGREEN, relative to untreated control cells) worked out at 18 % UTC; in the data set on Yap1 mRNA [6] (Table 45, Yap1 mRNA as percent of untreated control, SNU-449 cells, single dose), 28 % UTC. Moreover, the “YAP1 (% UT)” value in the data set on Yap1 mRNA [6] (Table 46, Yap1 mRNA as percent of untreated control, SNU-449 cells, single dose) came to 25 % UT; in the data set on Yap1 mRNA [6] (Table 48, Yap1 mRNA level relative to untreated control, modified oligonucleotides targeting SEQ ID NO.: 1 and 2), 34 % UT; in the data set with Yap1 mRNA [6] (Table 49, Yap1 mRNA level relative to untreated control, modified oligonucleotides targeting SEQ ID NO.: 1 and 2), 30 % UT; with Yap1 mRNA [6] (Table 50, Yap1 mRNA remaining as percent of untreated control (UT), SNU-449 cells, single dose) it was 31 % UT; with Yap1 mRNA [6] (Table 51, Yap1 mRNA remaining as percent of untreated control (UT), SNU-449 cells, single dose), 24 % UT; in the data set on Yap1 mRNA [6] (Table 52, Yap1 mRNA, modified oligonucleotides targeting SEQ ID NO: 1 and 2), 29 % UT. In addition, the “YAP1 (% UT)” value in the data set on Yap1 mRNA [6] (Yap1 mRNA, percent of untreated control, modified oligonucleotides targeting SEQ ID NO: 1 and 2, Table 47) came out at 39 % UT.
As to “715483 (antisense k[5mC]*kT*k[5mC]*dT*dT*dT*dG*dG*dA*dA*dA*d[5mC]*d[5mC]*kA*kT*kT) [Compound 715483]”, the “YAP1 (% UTC)” value came to 15 % UTC in the data set with Yap1 mRNA [4] (setting [10]); 2 % UTC with Yap1 mRNA [5] (setting [8]); 1 % UTC in the data set on Yap1 mRNA [5] (Table 9, free uptake, 2,000 nM, approximately 48 hours, RTS36584, normalized to RIBOGREEN, Yap1 mRNA relative to untreated control cells); 2 % UTC in the data set on Yap1 mRNA [5] (Table 10, free uptake, 2,000 nM oligonucleotide, approx. 48 hours, primer probe set RTS36584, Yap1 mRNA normalized to RIBOGREEN, percent of untreated control); 1 % UTC in the data set on Yap1 mRNA [5] (Table 11, free uptake, 2,000 nM oligonucleotide, approx. 48 hours, primer probe set RTS36584, Yap1 mRNA normalized to RIBOGREEN, percent of untreated control); 1 % UTC in the data set with Yap1 mRNA [5] (Table 12, free uptake, 2,000 nM modified oligonucleotide, approx. 48 hours, RTS36584, normalized to RIBOGREEN, Yap1 mRNA relative to untreated control cells). The “YAP1 (% UTC)” value with Yap1 mRNA [5] (Table 13, free uptake, 2,000 nM modified oligonucleotide, approx. 48 hours, RTS36584, normalized to RIBOGREEN, Yap1 mRNA relative to untreated control cells) stood at 1 % UTC.
With “715472 (antisense kT*kT*kT*dA*dT*d[5mC]*dT*dA*dG*d[5mC]*dT*dT*dG*kG*kT*kG) [Compound 715472]”, the “YAP1 (% UTC)” value in the data set on Yap1 mRNA [4] (setting [9]) was found to be 52 % UTC.
Still for that read-out and setting: the same measure for “715460 (antisense kA*kT*k[5mC]*dT*d[5mC]*dG*dA*dG*dA*dG*dT*dG*dA*kT*kA*kG) [Compound 715460]”: 114 % UTC.
As for “715403 (kG*kA*kA*dG*dG*dA*dG*dT*d[5mC]*dG*dG*dG*d[5mC]*kA*kG*k[5mC]; antisense) [Compound 715403]”, the “YAP1 (% UTC)” value in the data set with Yap1 mRNA [4] (setting [9]) turned out to be 72 % UTC.
Still for that read-out and setting: the same measure for “715475 (antisense kA*kG*k[5mC]*dT*dT*dT*d[5mC]*dT*dT*dT*dA*dT*d[5mC]*kT*kA*kG) [Compound 715475]”: 103 % UTC.
Still for that read-out and setting: as for “715601 (antisense kA*kG*kA*dA*dT*dT*d[5mC]*d[5mC]*d[5mC]*dA*dA*dG*d[5mC]*kT*kA*k[5mC]) [Compound 715601]”, the figure is 106 % UTC; as for “715448 (antisense k[5mC]*kT*k[5mC]*dA*dA*dT*dT*d[5mC]*d[5mC]*dT*dG*dA*dG*kA*k[5mC]*kA) [Compound 715448]”, 97 % UTC.
Still for that read-out and setting: as for “715496 (antisense k[5mC]*k[5mC]*k[5mC]*dT*dT*dG*dA*dA*dA*dA*dT*dA*dA*kG*kG*kG) [Compound 715496]”, the figure is 124 % UTC.
As for “715606 (antisense kA*k[5mC]*k[5mC]*dA*dT*dA*dG*d[5mC]*dA*d[5mC]*dA*dG*dA*kA*kT*kT) [Compound 715606]”, the “YAP1 (% UTC)” value with Yap1 mRNA [4] (setting [10]) stood at 88 % UTC.
On to “715540 (kT*kG*kA*dA*dG*dA*dA*d[5mC]*dT*dA*dT*dT*dT*k[5mC]*k[5mC]*kT; antisense) [Compound 715540]”, for which, in the data set with Yap1 mRNA [4] (setting [10]), the “YAP1 (% UTC)” value is reported as 82 % UTC.
In the case of “715413 (k[5mC]*kA*kT*dG*d[5mC]*dT*dG*dT*dG*dG*dA*dG*dT*k[5mC]*kA*kG; antisense) [Compound 715413]”, the “YAP1 (% UTC)” value in the data set with Yap1 mRNA [4] (setting [7]) is recorded as 96 % UTC.
As to “715572 (kT*k[5mC]*kA*dG*dA*dG*dA*dA*dG*dA*dA*dA*dG*kG*kT*kA; antisense) [Compound 715572]”, the “YAP1 (% UTC)” value with Yap1 mRNA [4] (setting [7]) was 97 % UTC.
“715622 (antisense kA*kG*kT*dA*dA*dA*dA*dA*dA*dT*dA*dA*dG*kA*k[5mC]*kG) [Compound 715622]”: the “YAP1 (% UTC)” value in the data set on Yap1 mRNA [4] (setting [9]) is given as 137 % UTC.
For the substance “715600 (antisense kA*kA*kT*dT*d[5mC]*d[5mC]*d[5mC]*dA*dA*dG*d[5mC]*dT*dA*k[5mC]*k[5mC]*k[5mC]) [Compound 715600]”, the “YAP1 (% UTC)” value in the data set on Yap1 mRNA [4] (setting [10]) turned out to be 82 % UTC.
